# Measured values as given in doi:10.1101/2024.07.27.605435v1, “A fluorescent biosensor for the visualization of agmatine” (biorxiv, 2024).
# Molecular target: T1, PotF (Escherichia coli, UniProt P31133, A182D/S87Y)
# T1 sequence (P31133 27-370 S87Y/A182D): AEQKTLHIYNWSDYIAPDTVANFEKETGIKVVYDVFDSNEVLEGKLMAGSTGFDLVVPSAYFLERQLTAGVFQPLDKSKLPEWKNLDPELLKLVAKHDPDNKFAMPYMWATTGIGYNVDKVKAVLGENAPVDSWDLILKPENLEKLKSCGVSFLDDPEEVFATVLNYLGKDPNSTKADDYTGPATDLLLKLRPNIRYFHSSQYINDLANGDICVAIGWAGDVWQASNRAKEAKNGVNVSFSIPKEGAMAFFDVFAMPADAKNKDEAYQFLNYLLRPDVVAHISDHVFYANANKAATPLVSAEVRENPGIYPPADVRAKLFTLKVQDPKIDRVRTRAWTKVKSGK
# Assay: isothermal titration calorimetry; crystal structure of the complex solved here
# Format: binding
compound,measurement,value
N=C(N)NCCCCN [agmatine],Kd,300 nM
